Laboratory results from US20100172916A1, “SUBSTITUTED HYDROXYPHENYLAMINE COMPOUNDS” (AUSPEX PHARMACEUTICALS, INC., priority 2008, published 2010).

Experiment: In vitro liver microsomal stability assay
Assay type: in vitro ADME
Details: 0.5 mg per mL liver microsome protein, NADPH-generating system, 5 microgram per mL test compound, 37° C., 0-30 minutes, LC/MS/MS
Experimental: Liver microsomal stability assays were conducted at 0.5 mg per mL liver microsome protein with an NADPH-generating system in 2% sodium bicarbonate (2.2 mM NADPH, 25.6 mM glucose 6-phosphate, 6 units per mL glucose 6-phosphate dehydrogenase and 3.3 mM magnesium chloride). Test compounds were prepared as solutions in 20% acetonitrile-water and were added to the assay mixture (final assay concentration 5 microgram per mL) and incubated at 37° C. Final concentration of acetonitrile in the assay should be <1%. Aliquots (50 μL) were taken out at times 0, 7.5, 15, 22.5, and 30 minutes, and diluted with ice cold acetonitrile (200 μL) to stop the reactions. Samples were centrifuged at 12,000 RPM for 10 minutes to precipitate proteins. Supernatants were transferred to microcentrifuge tubes and stored for LC/MS/MS analysis of the degradation half-life of the test compounds.

degradation half-life as compared to the non-isotopically enriched drug | Structure (SMILES)
decrease in degradation half-life | [2H]C([2H])(c1cccc(O)c1)[C@]([2H])(N)C(=O)O [Example 3, d3-2-Amino-3-(3-hydroxy-phenyl)-propionic acid]
decrease in degradation half-life | [2H][C@@H](c1cccc(O)c1)[C@]([2H])(N)C(=O)O [Example 2, d3-2-Amino-3-(3-hydroxy-phenyl)-propionic acid]
